The test system of the test is P388 leukemia ip, CD2F1 mice, survival T/C. In words: NCI In Vivo Anticancer Drug Screen. Data for tumor model P388 Leukemia (intraperitoneal) in CD2F1 (CDF1) mice. The following applies: endpoint: median survival time, higher = longer survival. The gist of the method:
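Mice carrying the transplanted tumor received test compound or vehicle. Survival was recorded in each group, and the value is the treated-group measurement divided by that of the vehicle-treated control group.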

[1] abbreviates: dose: 100.0 mg/kg/injection, schedule: Q04DX003 (ip), vehicle: saline with Tween-80.
[2] abbreviates: dose: 200.0 mg/kg/injection, schedule: Q04DX003 (ip), vehicle: saline with Tween-80.
Setting [3] is: dose: 400.0 mg/kg/injection, schedule: Q04DX003 (ip), vehicle: saline with Tween-80.
Setting [4] is: dose: 50.0 mg/kg/injection, schedule: Q01DX005 (ip), vehicle: saline with Tween-80.
Setting [5] is: dose: 100.0 mg/kg/injection, schedule: Q01DX005 (ip), vehicle: saline with Tween-80.
Where [6] appears, read: dose: 200.0 mg/kg/injection, schedule: Q01DX005 (ip), vehicle: saline with Tween-80.
Where [7] appears, read: dose: 60.0 mg/kg/injection, schedule: Q01DX005 (ip), vehicle: Klucel (hydroxypropylcellulose) (HPC).
Setting [8] is: dose: 120.0 mg/kg/injection, schedule: Q01DX005 (ip), vehicle: Klucel (hydroxypropylcellulose) (HPC).
[9] abbreviates: dose: 240.0 mg/kg/injection, schedule: Q01DX005 (ip), vehicle: Klucel (hydroxypropylcellulose) (HPC).
[10] abbreviates: dose: 50.0 mg/kg/injection, schedule: Q01DX009 (ip), vehicle: saline with Tween-80.
The mark [11] stands for this setting: dose: 100.0 mg/kg/injection, schedule: Q01DX009 (ip), vehicle: saline with Tween-80.
Where [12] appears, read: dose: 200.0 mg/kg/injection, schedule: Q01DX009 (ip), vehicle: saline with Tween-80.

Our source for the T/C values is PubChem BioAssay AID330 (DTP/NCI, 2004).

Where “and” joins values, the source holds several entries; their conditions need not be identical. Identical values can stand only once. Toxic doses and inconclusive results are not listed.

Turning to `C1C[N+]2(CCO1)CC[N+]1(CCOCC1)CC2`, the T/C (dose: 60.0 mg/kg/injection, schedule: Q01DX005 (ip), vehicle: saline) is 110 % of control; the T/C (dose: 120.0 mg/kg/injection, schedule: Q01DX005 (ip), vehicle: saline) was 101 % of control; the T/C (dose: 240.0 mg/kg/injection, schedule: Q01DX005 (ip), vehicle: saline) is 101 % of control.

`CSc1ccc(Cl)cc1NC(=O)N(C)C`: the T/C runs as follows: under setting [1], 98 % of control; under setting [2], 98 % of control; under setting [3], 96 % of control.

Regarding `CC(C)C(Br)C(=O)NCC(=O)O` (stereo not given), the T/C was 100 % of control under setting [1], 95 % of control under setting [2] and 100 % of control under setting [3].

As for `C/C1=C\C(=O)OCC23CCC4(C)OC4C2OC2CC(OC(=O)/C=C/C=C/C(C(C)O)OCC1O)C3(C)C21CO1` (stereo not given), the T/C (dose: 1.25 mg/kg/injection, schedule: Q01DX005 (ip), vehicle: saline + alcohol) is 121 % of control and 123 % of control; the T/C (dose: 5.0 mg/kg/injection, schedule: Q01DX005 (ip), vehicle: saline + alcohol) was 124 % of control; the T/C (dose: 10.0 mg/kg/injection, schedule: Q01DX005 (ip), vehicle: saline + alcohol) was 150 % of control; the T/C (dose: 20.0 mg/kg/injection, schedule: Q01DX005 (ip), vehicle: saline + alcohol) is 159 % of control.

With `CN=C(N)N/N=C(\C)c1ccc2ccc3ccccc3c2c1`, the T/C (dose: 50.0 mg/kg/injection, schedule: Q04DX002 (ip), vehicle: saline with Tween-80) was 105 % of control.

For `COc1ccc(CN2COc3c(ccc4ccccc34)C2)cc1`, the T/C runs as follows: (dose: 100.0 mg/kg/injection, schedule: Q04DX003 (ip), vehicle: Klucel (hydroxypropylcellulose) (HPC)) 97 % of control; (dose: 200.0 mg/kg/injection, schedule: Q04DX003 (ip), vehicle: Klucel (hydroxypropylcellulose) (HPC)) 96 % of control; (dose: 400.0 mg/kg/injection, schedule: Q04DX003 (ip), vehicle: Klucel (hydroxypropylcellulose) (HPC)) 100 % of control.

Regarding `Cn1cnc2ncnc(NCc3ccccc3Cl)c21`, the T/C (dose: 6.25 mg/kg/injection, schedule: Q04DX003 (ip), vehicle: saline with Tween-80) was 93 % of control; the T/C (dose: 12.5 mg/kg/injection, schedule: Q04DX003 (ip), vehicle: saline with Tween-80) was 94 % of control; the T/C (dose: 25.0 mg/kg/injection, schedule: Q04DX003 (ip), vehicle: saline with Tween-80) is 94 % of control; the T/C (dose: 50.0 mg/kg/injection, schedule: Q04DX003 (ip), vehicle: saline with Tween-80) is 91 % of control.

As for `COCCN(CCOC)C(C(=O)Cc1ccccc1)c1ccccc1` (stereo not given), the T/C is, setting by setting: under setting [4], 99 % of control; under setting [5], 101 % of control; under setting [6], 103 % of control.

Consider `CCOC1(C)OC2OC(COCc3ccccc3)C(OCc3ccccc3)C(OCc3ccccc3)C2O1` (stereo not given), for which the T/C reads like this: (dose: 12.5 mg/kg/injection, schedule: Q01DX009 (ip), vehicle: other) 99 % of control; (dose: 25.0 mg/kg/injection, schedule: Q01DX009 (ip), vehicle: other) 100 % of control; (dose: 50.0 mg/kg/injection, schedule: Q01DX009 (ip), vehicle: other) 100 % of control; (dose: 100.0 mg/kg/injection, schedule: Q01DX009 (ip), vehicle: other) 89 % of control; (dose: 200.0 mg/kg/injection, schedule: Q01DX009 (ip), vehicle: other) 98 % of control.

With `c1ccc2c(SCCNCCSc3c4ccccc4nc4ccccc34)c3ccccc3nc2c1`, the T/C is 106 % of control under setting [7], 105 % of control under setting [8] and 106 % of control under setting [9].

Turning to `COc1ccc(-c2cc(C(=O)O)c3cc4ccccc4cc3n2)cc1Br`, the T/C is, setting by setting: under setting [10], 94 % of control; under setting [11], 93 % of control and 97 % of control; under setting [12], 105 % of control and 87 % of control; (dose: 400.0 mg/kg/injection, schedule: Q01DX009 (ip), vehicle: saline with Tween-80) 121 % of control and 89 % of control; (dose: 600.0 mg/kg/injection, schedule: Q01DX009 (ip), vehicle: saline with Tween-80) 101 % of control.

Regarding `CC1CCC2(C)CCC3(C)C4=CCC5C(C)(C)C(O)CCC5(C)C4CCC3(C)C2C1C` (stereo not given), the T/C by setting is: (dose: 200.0 mg/kg/injection, schedule: Q04DX003 (ip), vehicle: other) 95 % of control; (dose: 400.0 mg/kg/injection, schedule: Q04DX003 (ip), vehicle: other) 100 % of control.

Consider `CCOC(=O)/[C](=N\N=P(N(C)C)(N(C)C)N(C)C)[Sb]([CH3])[CH3]`, for which the T/C (dose: 12.5 mg/kg/injection, schedule: Q01DX001 (ip), vehicle: saline) is 99 % of control and the T/C (dose: 25.0 mg/kg/injection, schedule: Q01DX001 (ip), vehicle: saline) was 102 % of control.

For `Cc1cccc(Nc2c(C(=O)O)cnc3cc4c(cc23)OCO4)c1C`, the T/C was 94 % of control (dose: 30.0 mg/kg/injection, schedule: Q01DX005 (ip), vehicle: Klucel (hydroxypropylcellulose) (HPC)); 96 % of control under setting [7]; 99 % of control and 103 % of control under setting [8]; 111 % of control under setting [9].

Consider `CCCCNP(=O)(N1CC1)N1CC1`, for which the T/C was 95 % of control (dose: 0.2 mg/kg/injection, schedule: Q04DX003 (ip), vehicle: saline); 104 % of control (dose: 0.4 mg/kg/injection, schedule: Q04DX003 (ip), vehicle: saline); 118 % of control (dose: 0.8 mg/kg/injection, schedule: Q04DX003 (ip), vehicle: saline); 195 % of control (dose: 6.0 mg/kg/injection, schedule: Q04DX003 (ip), vehicle: saline); 172 % of control (dose: 6.25 mg/kg/injection, schedule: Q01DX009 (ip), vehicle: saline); 154 % of control (dose: 6.25 mg/kg/injection, schedule: Q04DX003 (ip), vehicle: saline). The T/C is 118 % of control (dose: 12.5 mg/kg/injection, schedule: Q01DX009 (ip), vehicle: saline); 172 % of control (dose: 12.5 mg/kg/injection, schedule: Q04DX003 (ip), vehicle: saline); 86 % of control (dose: 25.0 mg/kg/injection, schedule: Q04DX003 (ip), vehicle: saline).

As to `CC(=O)C1CC2C=CC1N(C1=CC(=O)CC(C)(C)C1)C2=O` (stereo not given), the T/C is 108 % of control under setting [10], 107 % of control under setting [11] and 100 % of control under setting [12].

For `CCCCCCC[CH2][Sn]([CH2]C)([CH2]C)[O]C(C)=O`, under “dose: 0.25 mg/kg/injection, schedule: Q01DX009 (ip), vehicle: saline with Tween-80”, the T/C is 122 % of control.

Regarding `COc1ccc(S(=O)(=O)OCCCl)cc1`, the T/C is, setting by setting: under setting [10], 100 % of control; under setting [11], 97 % of control; under setting [12], 100 % of control.

As to `C1=C2CCc3ccc(o3)CCC(=C1)O2`, the T/C is 100 % of control under setting [4], 94 % of control under setting [5] and 93 % of control under setting [6].

Regarding `COC(=O)C(CS[C@@H]1CCCC[C@@H]1O)NC(C)=O` (stereo not given in full), the T/C is 100 % of control (dose: 50.0 mg/kg/injection, schedule: Q01DX005 (ip), vehicle: suspension in saline); 99 % of control (dose: 100.0 mg/kg/injection, schedule: Q01DX005 (ip), vehicle: suspension in saline); 95 % of control (dose: 200.0 mg/kg/injection, schedule: Q01DX005 (ip), vehicle: suspension in saline).

Turning to `CC1=C(/C=C/C(C)=N/NC(N)=S)C(C)(C)CCC1`, the T/C is 100 % of control (dose: 6.25 mg/kg/injection, schedule: Q01DX009 (ip), vehicle: saline with Tween-80) and 115 % of control (dose: 12.5 mg/kg/injection, schedule: Q01DX009 (ip), vehicle: saline with Tween-80).

`Cc1ccc(C)c(NC(=O)Nc2ccc(CCO)cc2)c1`: the T/C is, setting by setting: (dose: 50.0 mg/kg/injection, schedule: Q01DX009 (ip), vehicle: Klucel (hydroxypropylcellulose) (HPC)) 102 % of control; (dose: 100.0 mg/kg/injection, schedule: Q01DX009 (ip), vehicle: Klucel (hydroxypropylcellulose) (HPC)) 102 % of control; (dose: 200.0 mg/kg/injection, schedule: Q01DX009 (ip), vehicle: Klucel (hydroxypropylcellulose) (HPC)) 99 % of control.

Consider `O=C(Nc1cccc2c1C(=O)c1c(NC(=O)c3ccccc3)ccc(Nc3cccc4c3C(=O)c3ccccc3C4=O)c1C2=O)c1ccccc1`, for which the T/C is, setting by setting: under setting [4], 100 % of control; under setting [5], 103 % of control; under setting [6], 103 % of control.
